{"source": "patent EP0511791A2", "about": "“Pyrrolopyridine derivatives as Angiotensin inhibitors” (ZENECA LIMITED, priority 1991, dated 1992)", "test_system": "angiotensin II-induced pressor responses", "experiment": "Test C: antagonism of angiotensin II-induced pressor responses in rats", "format": "in vivo", "conditions": "Rattus norvegicus, iv, i.v. administration", "protocol": "Test C: This in vivo test involves using terminally-anaesthetised or conscious rats in which an arterial catheter has been implanted under anaesthesia for the measurement of changes in blood pressure. The All antagonistic effects of the test compound following oral or parenteral administration, are assessed against angiotensin II-induced pressor responses. To ensure that the effect is specific, the effect of the test compound on vasopressin-induced pressor responses may also be determined in the same preparation.", "data": [{"smiles": "Cc1cc2c(cc(C)n2Cc2ccc(-c3ccccc3-c3nnn[nH]3)cc2)c(Cl)n1.Cl", "note": "[Example 2, 4-chloro-2,6-dimethyl-1-[(2'-(1H-tetrazol-5-yl)biphenyl-4-yl)methyl]-1H-pyrrolo[3,2-c]pyridine hydrochloride]", "values": [{"measurement": "ED50", "result": 0.4, "unit": "mg/kg"}]}]}
